Patent US20220388964A1 (HiberCell, Inc., priority 2019, published 2022)

Biological target: GCN2 (Homo sapiens, UniProt Q9P2K8)
Test: TR-FRET biochemical assay for inhibition of GCN2 (Example 106, for Example 1-4BB)

Sequence of GCN2 (Q9P2K8 whole entry): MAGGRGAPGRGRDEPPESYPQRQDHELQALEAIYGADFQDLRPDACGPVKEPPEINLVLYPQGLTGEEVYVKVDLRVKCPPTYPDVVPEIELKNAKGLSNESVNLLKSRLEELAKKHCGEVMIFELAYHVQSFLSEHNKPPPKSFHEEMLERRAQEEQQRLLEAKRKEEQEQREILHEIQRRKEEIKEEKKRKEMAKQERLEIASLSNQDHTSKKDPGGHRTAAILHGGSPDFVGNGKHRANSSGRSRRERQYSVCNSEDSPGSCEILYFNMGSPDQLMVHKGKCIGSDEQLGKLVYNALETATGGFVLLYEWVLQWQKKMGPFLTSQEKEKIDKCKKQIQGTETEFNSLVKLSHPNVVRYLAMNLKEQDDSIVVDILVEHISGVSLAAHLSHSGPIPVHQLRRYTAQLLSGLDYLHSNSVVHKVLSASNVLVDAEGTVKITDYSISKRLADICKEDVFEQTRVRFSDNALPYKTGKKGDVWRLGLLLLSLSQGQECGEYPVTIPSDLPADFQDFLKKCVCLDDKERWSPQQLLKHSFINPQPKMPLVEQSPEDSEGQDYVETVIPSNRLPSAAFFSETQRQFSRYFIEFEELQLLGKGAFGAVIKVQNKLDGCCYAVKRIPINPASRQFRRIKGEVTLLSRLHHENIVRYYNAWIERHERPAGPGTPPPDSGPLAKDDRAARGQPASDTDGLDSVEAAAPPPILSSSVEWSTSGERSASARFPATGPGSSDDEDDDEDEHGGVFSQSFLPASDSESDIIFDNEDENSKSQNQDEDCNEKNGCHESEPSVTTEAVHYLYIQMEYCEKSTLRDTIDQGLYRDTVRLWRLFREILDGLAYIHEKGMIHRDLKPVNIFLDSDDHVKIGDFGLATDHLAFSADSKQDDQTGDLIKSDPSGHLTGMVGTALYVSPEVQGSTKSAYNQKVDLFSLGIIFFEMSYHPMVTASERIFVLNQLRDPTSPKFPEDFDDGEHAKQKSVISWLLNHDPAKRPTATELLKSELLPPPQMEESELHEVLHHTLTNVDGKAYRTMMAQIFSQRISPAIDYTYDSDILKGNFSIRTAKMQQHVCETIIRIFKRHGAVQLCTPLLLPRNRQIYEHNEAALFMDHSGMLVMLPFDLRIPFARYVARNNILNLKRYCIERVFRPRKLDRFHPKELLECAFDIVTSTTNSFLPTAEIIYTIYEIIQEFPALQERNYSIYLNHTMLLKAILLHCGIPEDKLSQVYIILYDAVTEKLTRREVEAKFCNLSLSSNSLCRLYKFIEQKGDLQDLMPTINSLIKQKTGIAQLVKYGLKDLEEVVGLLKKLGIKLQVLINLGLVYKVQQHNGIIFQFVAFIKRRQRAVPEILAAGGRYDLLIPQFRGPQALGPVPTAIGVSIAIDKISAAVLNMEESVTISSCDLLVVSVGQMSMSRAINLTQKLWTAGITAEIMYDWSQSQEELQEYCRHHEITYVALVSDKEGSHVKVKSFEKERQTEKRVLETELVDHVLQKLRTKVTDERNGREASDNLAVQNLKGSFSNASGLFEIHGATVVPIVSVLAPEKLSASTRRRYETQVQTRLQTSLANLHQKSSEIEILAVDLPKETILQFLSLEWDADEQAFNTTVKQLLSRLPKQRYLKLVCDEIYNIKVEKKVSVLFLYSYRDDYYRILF

| Compound | IC50 (Table 8) [nM] | IC50 (Table 9) [nM] |
| --- | --- | --- |
| COc1cccc(S(=O)(=O)Nc2ccc(F)c(-c3ccc4c(-c5ncc[nH]5)n[nH]c4c3F)c2F)c1C [Example 2AR, N-(2,4-difluoro-3-(7-fluoro-3-(1H-imidazol-2-yl)-1H-indazol-6-yl)phenyl)-3-methoxy-2-methylbenzene-sulfonamide] | 500 to 2500 | – |
| O=c1[nH]cccc1S(=O)(=O)Nc1ccc(F)c(-c2ccc3c(-c4ncc[nH]4)n[nH]c3c2F)c1F [Example 2AC, N-(2,4-difluoro-3-(7-fluoro-3-(1H-imidazol-2-yl)-1H-indazol-6-yl)phenyl)-2-oxo-1,2-dihydro-pyridine-3-sulfonamide] | 2500 to 10000 | – |
| COc1ncc(Cl)cc1S(=O)(=O)Nc1ccc(F)c(-c2ccc3c(C(=O)N[C@@H]4CCN(C)C4)n[nH]c3c2F)c1F [Example 3AD, 6-(3-((5-chloro-2-methoxy-pyridine)-3-sulfonamido)-2,6-difluorophenyl)-7-fluoro-N-((R)-1-methylpyrrolidin-3-yl)-1H-indazole-3-carboxamide] | – | < 500 |
| COc1ncc(Cl)cc1S(=O)(=O)Nc1ccc(F)c(-c2ccc3c(C(=O)NCCO)n[nH]c3c2F)c1F [Example 2CH, 6-(3-((5-chloro-2-methoxy-pyridine)-3-sulfonamido)-2,6-difluorophenyl)-7-fluoro-N-(2-hydroxyethyl)-1H-indazole-3-carboxamide] | < 500 | – |
| COc1ncc(F)cc1S(=O)(=O)Nc1ncc(F)c(-c2ccc3c(-c4nc(CO)c[nH]4)n[nH]c3c2F)c1F [Example 3K, N-(3,5-difluoro-4-(7-fluoro-3-(4-(hydroxymethyl)-1H-imidazol-2-yl)-1H-indazol-6-yl)pyridin-2-yl)-5-fluoro-2-methoxypyridine-3-sulfonamide] | – | < 500 |
| O=S(=O)(Nc1ccc(F)c(-c2ccc3c(-c4ncc[nH]4)n[nH]c3c2F)c1F)c1ccc(Cl)cc1Cl [Example 2BN, 2,4-dichloro-N-(2,4-difluoro-3-(7-fluoro-3-(1H-imidazol-2-yl)-1H-indazol-6-yl)phenyl)-benzenesulfonamide] | < 500 | – |
| Cc1ccc(S(=O)(=O)Nc2ccc(F)c(-c3ccc4c(-c5ncc[nH]5)n[nH]c4c3F)c2F)cc1 [Example 1, N-(2,4-difluoro-3-(7-fluoro-3-(1H-imidazol-2-yl)-1H-indazol-6-yl)phenyl)-4-methylbenzenesulfonamide] | 500 to 2500 | – |
| COc1ncc(F)cc1S(=O)(=O)Nc1ccc(F)c(-c2ccc3c(C(=O)NCC#N)n[nH]c3c2F)c1F [Example 3AW, N-(cyanomethyl)-6-(2,6-difluoro-3-((5-fluoro-2-methoxypyridine)-3-sulfon-amido)phenyl)-7-fluoro-1H-indazole-3-carboxamide] | – | < 500 |
| COc1ncc(Cl)cc1S(=O)(=O)Nc1ccc(F)c(-c2ccc3c(C(=O)NC(C)C)n[nH]c3c2F)c1F [Example 2CK, 6-(3-((5-chloro-2-methoxy-pyridine)-3-sulfonamido)-2,6-difluorophenyl)-7-fluoro-N-isopropyl-1H-indazole-3-carboxamide] | < 500 | – |
| Cc1nc(C)c(S(=O)(=O)Nc2cc(F)cc(-c3ccc4c(-c5ncc[nH]5)n[nH]c4c3F)c2F)s1 [Example 3BY, N-(2,5-difluoro-3-(7-fluoro-3-(1H-imidazol-2-yl)-1H-indazol-6-yl)phenyl)-2,4-dimethylthiazole-5-sulfonamide] | – | < 500 |
| COc1ncc(Cl)cc1S(=O)(=O)Nc1cc(F)cc(-c2ccc3c(C(=O)NCCCN(C)C)n[nH]c3c2F)c1F [Example 3BB, 6-(3-((5-chloro-2-methoxy-pyridine)-3-sulfonamido)-2,5-difluorophenyl)-N-(3-(dimethylamino)propyl)-7-fluoro-1H-indazole-3-carboxamide] | – | < 500 |
| Cc1ncc(F)cc1S(=O)(=O)Nc1cccc(-c2ccc3c(-c4ncc[nH]4)n[nH]c3c2Cl)c1F [Example 3N, N-(3-(7-chloro-3-(1H-imidazol-2-yl)-1H-indazol-6-yl)-2-fluorophenyl)-5-fluoro-2-methylpyridine-3-sulfonamide] | – | 500 to 2500 |
| COc1ncc(Cl)cc1S(=O)(=O)Nc1ccc(F)c(-c2ccc3c(-c4ccccn4)n[nH]c3c2F)c1F [Example 2CD, 5-chloro-N-(2,4-difluoro-3-(7-fluoro-3-(pyridin-2-yl)-1H-indazol-6-yl)phenyl)-2-methoxypyridine-3-sulfonamide] | 500 to 2500 | – |
| Cc1ccc(Cl)cc1S(=O)(=O)Nc1ccc(F)c(-c2ccc3c(-c4ncc[nH]4)n[nH]c3c2)c1F [Example 2AW, N-(3-(3-(1H-imidazol-2-yl)-1H-indazol-6-yl)-2,4-difluorophenyl)-5-chloro-2-methylbenzenesulfonamide] | < 500 | – |
| COc1ncccc1S(=O)(=O)Nc1cccc(-c2ccc3c(-c4ncc[nH]4)n[nH]c3c2F)c1F [Example 3W, N-(2-fluoro-3-(7-fluoro-3-(1H-imidazol-2-yl)-1H-indazol-6-yl)phenyl)-2-methoxypyridine-3-sulfonamide] | – | < 500 |
| COc1ncc(F)cc1S(=O)(=O)Nc1ccc(F)c(-c2ccc3c(C(=O)Nc4ccc(C)nc4)n[nH]c3c2F)c1F [Example 3BX, 6-(2,6-difluoro-3-((5-fluoro-2-methoxypyridine)-3-sulfonamido)phenyl)-7-fluoro-N-(6-methylpyridin-3-yl)-1H-indazole-3-carboxamide] | – | < 500 |

The next lines start with the values.

| IC50 (Table 8) [nM] | IC50 (Table 9) [nM] | Compound |
| --- | --- | --- |
| 2500 to 10000 | – | CC(C)c1cccc(S(=O)(=O)Nc2ccc(F)c(-c3ccc4c(-c5ncc[nH]5)n[nH]c4c3F)c2F)c1 [Example 2L, N-(2,4-difluoro-3-(7-fluoro-3-(1H-imidazol-2-yl)-1H-indazol-6-yl)phenyl)-3-isopropyl-benzenesulfonamide] |
| – | 500 to 2500 | Cc1ccc(S(=O)(=O)Nc2ccc(F)c(-c3ccc4c(C(=O)NCCCN(C)C)n[nH]c4c3F)c2F)c(C)n1 [Example 3CO, N-(3-(dimethylamino)propyl)-6-(3-((2,6-dimethylpyridine)-3-sulfonamido)-2,6-difluorophenyl)-7-fluoro-1H-indazole-3-carboxamide] |
| – | 2500 to 10000 | COc1ncc(Cl)cc1S(=O)(=O)Nc1ccc(F)c(-c2ccc3c(C(=O)NC4COC4)n[nH]c3c2F)c1F [Example 3B, 6-(3-((5-chloro-2-methoxy-pyridine)-3-sulfonamido)-2,6-difluorophenyl)-7-fluoro-N-(oxetan-3-yl)-1H-indazole-3-carboxamide] |
| < 500 | – | O=S(=O)(Nc1ccc(F)c(-c2ccc3c(-c4ncc[nH]4)n[nH]c3c2F)c1F)c1cc(F)ccc1F [Example 2BH, N-(2,4-difluoro-3-(7-fluoro-3-(1H-imidazol-2-yl)-1H-indazol-6-yl)phenyl)-2,5-difluorobenzenesulfonamide] |
| – | < 500 | CN(C)CCCNC(=O)c1n[nH]c2c(F)c(-c3c(F)ccc(NS(=O)(=O)c4cc(F)cc(CO)c4F)c3F)ccc12 [Example 4P] |
| – | < 500 | COc1ncc(Cl)cc1S(=O)(=O)Nc1cccc(-c2cc3[nH]nc(C(=O)NCCCN(C)C)c3cn2)c1F [Example 35, 6-[3-[(5-chloro-2-methoxy-3-pyridyl)sulfonylamino]-2-fluoro-phenyl]-N-[3-(dimethylamino)propyl]-1H-pyrazolo[4,3-c]pyridine-3-carboxamide] |
| 500 to 2500 | – | O=S(=O)(Nc1ccc(F)c(-c2ccc3cn[nH]c3c2)c1F)c1cc(Cl)ccc1Cl [Example 2BX, 2,5-dichloro-N-(2,4-difluoro-3-(1H-indazol-6-yl)phenyl)benzenesulfonamide] |
| – | 2500 to 10000 | COc1ncccc1S(=O)(=O)Nc1nccc(-c2ccc3c(-c4ncc[nH]4)n[nH]c3c2F)c1C#N [Example 3J, N-(3-cyano-4-(7-fluoro-3-(1H-imidazol-2-yl)-1H-indazol-6-yl)pyridin-2-yl)-2-methoxypyridine-3-sulfonamide] |
| – | 500 to 2500 | Cc1ccc(S(=O)(=O)Nc2ccc(F)c(-c3ccc4c(C(N)=O)n[nH]c4c3F)c2F)c(C)n1 [Example 3DL, 6-(3-((2,6-dimethylpyridine)-3-sulfonamido)-2,6-difluoro-phenyl)-7-fluoro-1H-indazole-3-carboxamide] |
| – | < 500 | Cc1ncc(C#N)cc1S(=O)(=O)Nc1ccc(F)c(-c2ccc3c(C(N)=O)n[nH]c3c2F)c1F [Example 4E] |
| < 500 | – | Cc1c(Cl)cccc1S(=O)(=O)Nc1ccc(F)c(-c2ccc3c(-c4ncc[nH]4)n[nH]c3c2F)c1F [Example 2AY, 3-chloro-N-(2,4-difluoro-3-(7-fluoro-3-(1H-imidazol-2-yl)-1H-indazol-6-yl)phenyl)-2-methylbenzenesulfonamide] |
| – | < 500 | COc1ncc(C#N)cc1S(=O)(=O)Nc1ccc(F)c(-c2ccc3c(C(N)=O)n[nH]c3c2F)c1F [Example 4D] |
| < 500 | – | O=S(=O)(Nc1ccc(F)c(-c2ccc3c(-c4ncc[nH]4)n[nH]c3c2F)c1F)c1cc(Cl)ccc1CO [Example 2BW, 5-chloro-N-(2,4-difluoro-3-(7-fluoro-3-(1H-imidazol-2-yl)-1H-indazol-6-yl)phenyl)-2-(hydroxyl-methyl)benzene-sulfonamide] |
| < 500 | – | COc1ncc(Cl)cc1S(=O)(=O)Nc1cccc(-c2ccc3c(-c4ncc[nH]4)n[nH]c3c2F)c1C [Example 2P, 5-chloro-N-(3-(7-fluoro-3-(1H-imidazol-2-yl)-1H-indazol-6-yl)-2-methylphenyl)-2-methoxypyridine-3-sulfonamide] |
| – | 500 to 2500 | COc1ncc(F)cc1S(=O)(=O)Nc1nccc(-c2ccc3c(C(N)=O)n[nH]c3c2F)c1F [Example 3Q, 6-(3-fluoro-2-((5-fluoro-2-methoxypyridine)-3-sulfonamido)pyridin-4-yl)-7-fluoro-1H-indazole-3-carboxamide] |
| < 500 | – | Cn1cc(Cl)cc(S(=O)(=O)Nc2ccc(F)c(-c3ccc4c(-c5ncc[nH]5)n[nH]c4c3F)c2F)c1=O [Example 2AN, 5-chloro-N-(2,4-difluoro-3-(7-fluoro-3-(1H-imidazol-2-yl)-1H-indazol-6-yl)phenyl)-1-methyl-2-oxo-1,2-dihydro-pyridine-3-sulfonamide] |
| – | 500 to 2500 | COc1ncc(F)cc1S(=O)(=O)Nc1ccc(F)c(-c2ccc3c(C(=O)NCC(N)=O)n[nH]c3c2F)c1F [Example 3AM, N-(2-amino-2-oxoethyl)-6-(2,6-difluoro-3-((5-fluoro-2-methoxypyridine)-3-sulfon-amido)phenyl)-7-fluoro-1H-indazole-3-carboxamide] |
